The values below come from article PMC8626825 (Virology, 2021).

In one data set the test system is SARS-CoV-2 N protein. The experiment in a line: SARS-CoV-2 N protein accumulation in MRC5-ACE2 cells. It counts as cell-based.
The test system of data set [1] is SARS-CoV-2. The data set is described as follows: SARS-CoV-2 RNA accumulation in MRC5-ACE2 cells. Type of data set: cell-based, SARS-CoV-2 isolate Hong Kong/VM20001061/2020.
Data set [2] deals with SARS-CoV-2. The experiment in a line: SARS-CoV-2-induced cytopathic effect in MRC5-ACE2 cells. It counts as cell-based. Background: Cytopathic effects are the visible damage that an infection or toxin causes in cultured cells.
For data set [3], the system named is OC43. The note with it: for effect of co-treatment on IC50 of remdesivir against OC43-induced CPE: co-treatment with remdesivir, 5 μM lapatinib or 10 μM doramapimod.
Data set [4] has as its system SARS-CoV-2. Type of data set: cell-based.
For data set [5] the following is noted: cited from earlier work; for maximal accumulation in plasma: healthy patients given remdesivir, ref Jorgensen et al.; for maximal accumulation in plasma / concentration in bronchoalveolar aspirates: 2020; for concentration in bronchoalveolar aspirates: remdesivir treated COVID-19 patients, ref Pan et al.
Data set [6] concerns SARS-CoV-2. The conditions noted are these: SOLIDARITY trial, ref Pan et al., 2020; cited from earlier work.
Data set [7] concerns OC43. The experiment in a line: OC43 viral RNA accumulation in MRC5 cells. Type of data set: cell-based, human betacoronavirus (OC43). The conditions noted are these: MRC5, OC43, 24 hpi.
Data set [8] concerns OC43. Type of data set: cell-based, human betacoronavirus (OC43). The note with it: OC43, MRC5.
Data set [9] relates to SARS-CoV-2. The conditions noted are these: ref Dittmar et al., 2021; cited from earlier work.
In data set [10] the test system is 3CLpro. The note with it: ref Ghahremanpour et al., 2020; cited from earlier work.
Data set [11] has as its system 3CLpro. The note with it: 2020, cited from earlier work.
[12] abbreviates: lapatinib, human patients, ref Spector et al., 2015.

On to `Cc1ccc(-n2nc(C(C)(C)C)cc2NC(=O)Nc2ccc(OCCN3CCOCC3)c3ccccc23)cc1` [doramapimod], for which the “SARS-CoV-2 N protein accumulation” value in the data set with SARS-CoV-2 N protein is recorded as “completely prevented SARS-CoV-2 N protein accumulation”. Also, in the data set on SARS-CoV-2 [1], the “SARS-CoV-2 RNA accumulation” value is “able to block SARS-CoV-2 RNA accumulation at a low μM concentration” and the “dose of remdesivir required to abolish SARS-CoV-2 RNA accumulation” value is reported as “dramatically reduce the dose of remdesivir required”. The “SARS-CoV-2-induced CPE” value with SARS-CoV-2 [2] is on record as “blocked SARS-CoV-2-induced CPE”. Besides, the “effect of co-treatment on IC50 of remdesivir against OC43-induced CPE” value in the data set on OC43 [3] is given as “reduced the IC50 of remdesivir into the sub-μM range”. Besides, the “dose of remdesivir required to abolish production of infectious virions” value with SARS-CoV-2 [4] is reported as “dramatically reduce the dose of remdesivir required”.
Consider `CCC(CC)COC(=O)[C@H](C)N[P@](=O)(OC[C@H]1O[C@@](C#N)(c2ccc3c(N)ncnn23)[C@H](O)[C@@H]1O)Oc1ccccc1` [remdesivir], for which, in [5], the “maximal accumulation in plasma” value was 4 to 9 µM and the “concentration in bronchoalveolar aspirates” value is “not detectable”. Moreover, the clinical effectiveness entry with SARS-CoV-2 [6] is recorded as “not clinically effective”. Also, in the data set with OC43 [3] (remdesivir alone, MRC5), the “IC50 of remdesivir against OC43-induced CPE” value was “in the μM range”.
As to `N#C[C@@]1(c2ccc3c(N)ncnn23)O[C@H](CO)[C@@H](O)[C@H]1O` [GS-441524], in [5], the “maximal accumulation in plasma” value was “about 0.5 μM” and the “concentration in bronchoalveolar aspirates” value was about 15 nM.
On to `C=CCNC1=C2C[C@@H](C)C[C@H](OC)[C@H](O)[C@@H](C)/C=C(\C)[C@H](OC(N)=O)[C@@H](OC)/C=C\C=C(/C)C(=O)NC(=CC1=O)C2=O` [17-AAG], for which the “dose blocking OC43 viral RNA accumulation relative to remdesivir (fold less)” value in the data set with OC43 [7] is reported as about 10 fold. Besides, the “SARS-CoV-2 RNA accumulation” value with SARS-CoV-2 [1] was “only minimally reduced SARS-CoV-2 RNA accumulation”.
For `COc1cc2ncnc(Nc3ccc(F)c(Cl)c3)c2cc1OCCCN1CCOCC1` [gefitinib], the “identified as hit in the screen” value in the data set on OC43 [8] was “not identified”.
As for `CCN(CCO)CCCC(C)Nc1ccnc2cc(Cl)ccc12` (stereo not drawn) [hydroxychloroquine], the clinical effectiveness result in the data set with SARS-CoV-2 [6] is “not clinically effective”. The “activity against SARS-CoV-2 in human lung epithelial cell lines” value in the data set with SARS-CoV-2 [9] is “ineffective”.
As for `C#Cc1cccc(Nc2ncnc3cc(OCCOC)c(OCCOC)cc23)c1` [erlotinib], in the data set with OC43 [8], the “identified as hit in the screen” value is “not identified”.
Regarding `CS(=O)(=O)CCNCc1ccc(-c2ccc3ncnc(Nc4ccc(OCc5cccc(F)c5)c(Cl)c4)c3c2)o1` [lapatinib], in the data set on 3CLpro [10], the “in silico molecular docking result” value was “putative inhibitor of the SARS-CoV-2 protease, 3CLpro”. Besides, in data set [5] (setting [12]), the “concentration in tissue samples” value is 8000 to 12000 nM and the “plasma concentration in human patients” value was 1000 to 3000 nM. The “SARS-CoV-2 N protein accumulation” value in the data set on SARS-CoV-2 N protein is “completely prevented SARS-CoV-2 N protein accumulation”. Besides, in the data set on 3CLpro [11] (pre-print, ref Drayman et al.), the “inhibition of 3CLpro activity” value is “could, in fact, inhibit the activity of 3CLpro”. Besides, the “inhibition of 3CLpro (experimental)” value in the data set on 3CLpro [11] (ref Ghahremanpour et al.) is “did not inhibit 3CLpro”. In the data set with SARS-CoV-2 [1], the “SARS-CoV-2 RNA accumulation” value is recorded as “dramatic reduction in viral RNA accumulation”, the “dose of remdesivir required to abolish SARS-CoV-2 RNA accumulation” value is reported as “dramatically reduce the dose of remdesivir required” and the “inhibition of SARS-CoV-2 RNA replication” value was “over 50,000 fold”. Besides, the “SARS-CoV-2-induced CPE” value with SARS-CoV-2 [2] was “blocked SARS-CoV-2-induced CPE”. Also, in the data set with OC43 [3], the “effect of co-treatment on IC50 of remdesivir against OC43-induced CPE” value is listed as “reduced the IC50 of remdesivir into the sub-μM range”. Besides, in the data set with SARS-CoV-2 [4], the “dose of remdesivir required to abolish production of infectious virions” value is “dramatically reduce the dose of remdesivir required”.
